“Also recorded” adds a separate entry of the source. Where two headings read alike, the source gives them in different places. Values belong to the molecule of their own block, whether it stands above or below them.
Tests used:
native NMDA receptors [1] = test: Radioligand binding assay; conditions: rat brain synaptosomes; for [3H]CGP39653 mean pKi ± SEM: three to five experiments; for Ki: read-out: [3H]CGP39653 Ki, mean of three to five experiments
NR1/NR2A [2] = molecular target: T1, NR1/NR2A (Rattus norvegicus, UniProt Q00959); assay type: cell-based; conditions: for EC50: NR = no response up to 1000 μM
NR1/NR2B [3] = molecular target: T2, NR1/NR2B (Rattus norvegicus, UniProt Q00960); assay type: cell-based; conditions: NR1/NR2B; for EC50: NR = no response up to 1000 μM
NR1/NR2C [4] = molecular target: T3, NR1/NR2C (Rattus norvegicus, UniProt Q00961); assay type: cell-based; conditions: NR1/NR2C; for I/Imax (relative maximal response): relative to maximal response to glutamate (1.0)
NR1/NR2D [5] = molecular target: T4, NR1/NR2D (Rattus norvegicus, UniProt Q62645); assay type: cell-based; conditions: for Agonist activity (in words) / EC50 / pEC50 (mean ± SEM) / I/Imax (relative maximal response): NR1/NR2D; for I/Imax (relative maximal response): relative to maximal response to glutamate (1.0)
NR1/NR2B [6] = molecular target: NR1/NR2B (Rattus norvegicus, UniProt P35439+Q00960); assay type: cell-based
NR1/NR2C [7] = molecular target: NR1/NR2C (Rattus norvegicus, UniProt P35439+Q00961); assay type: cell-based
NR1/NR2D [8] = molecular target: NR1/NR2D (Rattus norvegicus, UniProt P35439+Q62645); assay type: cell-based
[9] = test system: native excitatory amino acid transporters (EAATs); conditions: cited from earlier work
native NMDA receptors [10] = conditions: read-out: [3H]CGP39653 Ki; rat brain synaptosomes; cited from earlier work
NR1/NR2A [11] = molecular target: T1, NR1/NR2A; conditions: cited from earlier work
NR1/NR2B [12] = molecular target: T2, NR1/NR2B; conditions: cited from earlier work
NR1/NR2C [13] = molecular target: T3, NR1/NR2C; conditions: cited from earlier work
NR1/NR2D [14] = molecular target: T4, NR1/NR2D; conditions: cited from earlier work
[15] = test system: NR2A (Y730 to phenylalanine); conditions: mutant vs wild type NR2A; cited from earlier work
NR2D(Y732F) = conditions: mutant vs wild type NR2D; cited from earlier work
[16] = relative to maximal response to glutamate (1.0)

T2 sequence (Q00960 27-1482, other chains not shown): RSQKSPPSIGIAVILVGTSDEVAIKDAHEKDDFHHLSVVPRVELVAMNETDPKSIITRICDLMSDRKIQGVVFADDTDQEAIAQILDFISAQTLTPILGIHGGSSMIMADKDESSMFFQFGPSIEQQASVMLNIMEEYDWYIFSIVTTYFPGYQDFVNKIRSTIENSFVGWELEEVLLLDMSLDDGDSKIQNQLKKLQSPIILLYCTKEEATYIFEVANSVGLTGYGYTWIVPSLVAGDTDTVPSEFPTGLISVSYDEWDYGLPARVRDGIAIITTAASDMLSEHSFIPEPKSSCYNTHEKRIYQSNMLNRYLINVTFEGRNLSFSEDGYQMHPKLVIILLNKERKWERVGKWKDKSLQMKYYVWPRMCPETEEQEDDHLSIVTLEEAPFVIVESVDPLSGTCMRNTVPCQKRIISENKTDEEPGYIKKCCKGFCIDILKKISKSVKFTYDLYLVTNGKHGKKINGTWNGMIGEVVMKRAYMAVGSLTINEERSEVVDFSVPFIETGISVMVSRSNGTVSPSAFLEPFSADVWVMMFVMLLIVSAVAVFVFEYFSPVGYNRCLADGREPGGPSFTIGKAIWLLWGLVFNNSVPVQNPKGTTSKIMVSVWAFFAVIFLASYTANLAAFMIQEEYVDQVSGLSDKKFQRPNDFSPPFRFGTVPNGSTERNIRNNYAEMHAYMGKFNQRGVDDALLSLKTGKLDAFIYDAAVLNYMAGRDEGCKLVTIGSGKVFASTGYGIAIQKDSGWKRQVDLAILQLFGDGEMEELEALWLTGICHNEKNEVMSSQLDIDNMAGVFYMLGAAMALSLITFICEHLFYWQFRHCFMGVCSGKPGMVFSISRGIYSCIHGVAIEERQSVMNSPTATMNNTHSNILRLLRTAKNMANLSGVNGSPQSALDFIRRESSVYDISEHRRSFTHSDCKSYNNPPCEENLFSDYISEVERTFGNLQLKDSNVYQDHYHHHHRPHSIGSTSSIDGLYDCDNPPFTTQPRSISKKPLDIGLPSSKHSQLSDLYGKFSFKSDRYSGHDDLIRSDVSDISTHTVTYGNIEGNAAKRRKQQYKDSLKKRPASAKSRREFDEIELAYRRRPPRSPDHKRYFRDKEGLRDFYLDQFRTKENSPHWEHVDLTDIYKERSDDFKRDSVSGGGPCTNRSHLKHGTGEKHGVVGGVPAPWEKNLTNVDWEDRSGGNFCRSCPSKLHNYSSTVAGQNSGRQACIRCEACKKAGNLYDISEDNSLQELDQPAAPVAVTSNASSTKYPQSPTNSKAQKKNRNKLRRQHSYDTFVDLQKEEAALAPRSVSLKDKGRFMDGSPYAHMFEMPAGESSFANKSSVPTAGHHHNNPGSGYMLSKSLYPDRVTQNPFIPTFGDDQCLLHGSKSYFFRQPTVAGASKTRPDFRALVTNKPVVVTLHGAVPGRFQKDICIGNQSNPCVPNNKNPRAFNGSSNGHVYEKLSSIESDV
T1 sequence (Q00959 23-1464, other chains not shown): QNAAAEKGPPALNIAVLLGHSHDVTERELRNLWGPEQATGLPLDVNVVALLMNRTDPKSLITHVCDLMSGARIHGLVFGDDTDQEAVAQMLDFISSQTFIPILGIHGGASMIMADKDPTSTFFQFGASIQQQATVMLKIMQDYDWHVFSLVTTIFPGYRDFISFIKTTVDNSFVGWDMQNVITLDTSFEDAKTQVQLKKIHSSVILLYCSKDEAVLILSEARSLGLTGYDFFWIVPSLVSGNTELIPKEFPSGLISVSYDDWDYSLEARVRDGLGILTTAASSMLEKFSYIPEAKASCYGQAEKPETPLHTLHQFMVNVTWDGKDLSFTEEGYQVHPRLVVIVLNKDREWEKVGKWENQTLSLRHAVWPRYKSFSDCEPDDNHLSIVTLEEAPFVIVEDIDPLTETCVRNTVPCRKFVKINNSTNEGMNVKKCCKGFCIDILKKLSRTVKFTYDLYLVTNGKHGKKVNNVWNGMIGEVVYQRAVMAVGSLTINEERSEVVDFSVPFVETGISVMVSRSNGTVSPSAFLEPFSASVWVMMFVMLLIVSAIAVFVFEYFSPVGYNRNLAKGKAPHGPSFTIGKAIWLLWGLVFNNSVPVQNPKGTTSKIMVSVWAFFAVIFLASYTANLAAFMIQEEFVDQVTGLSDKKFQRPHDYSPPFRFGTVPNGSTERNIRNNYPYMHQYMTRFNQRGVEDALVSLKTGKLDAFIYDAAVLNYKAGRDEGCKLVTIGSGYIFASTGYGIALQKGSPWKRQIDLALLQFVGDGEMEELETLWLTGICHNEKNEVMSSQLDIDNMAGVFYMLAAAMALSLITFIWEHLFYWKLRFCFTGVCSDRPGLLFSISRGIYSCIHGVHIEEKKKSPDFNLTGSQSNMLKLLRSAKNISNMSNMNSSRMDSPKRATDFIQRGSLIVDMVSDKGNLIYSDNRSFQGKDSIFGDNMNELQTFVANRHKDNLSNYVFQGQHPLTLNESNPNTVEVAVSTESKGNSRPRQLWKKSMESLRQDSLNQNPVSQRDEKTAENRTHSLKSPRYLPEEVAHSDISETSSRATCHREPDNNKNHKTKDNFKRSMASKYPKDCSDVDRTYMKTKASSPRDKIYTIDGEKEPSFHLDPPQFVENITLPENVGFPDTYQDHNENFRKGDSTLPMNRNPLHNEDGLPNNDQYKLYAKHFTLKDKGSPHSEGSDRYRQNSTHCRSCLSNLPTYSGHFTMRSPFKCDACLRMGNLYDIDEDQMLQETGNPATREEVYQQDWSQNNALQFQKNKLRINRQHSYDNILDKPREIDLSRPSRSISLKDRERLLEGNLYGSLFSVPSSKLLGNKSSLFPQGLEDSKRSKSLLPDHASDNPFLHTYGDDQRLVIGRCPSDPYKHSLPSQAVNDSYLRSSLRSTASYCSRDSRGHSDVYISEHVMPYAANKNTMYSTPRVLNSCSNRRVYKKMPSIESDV
T3 sequence (Q00961 20-1237, other chains not shown): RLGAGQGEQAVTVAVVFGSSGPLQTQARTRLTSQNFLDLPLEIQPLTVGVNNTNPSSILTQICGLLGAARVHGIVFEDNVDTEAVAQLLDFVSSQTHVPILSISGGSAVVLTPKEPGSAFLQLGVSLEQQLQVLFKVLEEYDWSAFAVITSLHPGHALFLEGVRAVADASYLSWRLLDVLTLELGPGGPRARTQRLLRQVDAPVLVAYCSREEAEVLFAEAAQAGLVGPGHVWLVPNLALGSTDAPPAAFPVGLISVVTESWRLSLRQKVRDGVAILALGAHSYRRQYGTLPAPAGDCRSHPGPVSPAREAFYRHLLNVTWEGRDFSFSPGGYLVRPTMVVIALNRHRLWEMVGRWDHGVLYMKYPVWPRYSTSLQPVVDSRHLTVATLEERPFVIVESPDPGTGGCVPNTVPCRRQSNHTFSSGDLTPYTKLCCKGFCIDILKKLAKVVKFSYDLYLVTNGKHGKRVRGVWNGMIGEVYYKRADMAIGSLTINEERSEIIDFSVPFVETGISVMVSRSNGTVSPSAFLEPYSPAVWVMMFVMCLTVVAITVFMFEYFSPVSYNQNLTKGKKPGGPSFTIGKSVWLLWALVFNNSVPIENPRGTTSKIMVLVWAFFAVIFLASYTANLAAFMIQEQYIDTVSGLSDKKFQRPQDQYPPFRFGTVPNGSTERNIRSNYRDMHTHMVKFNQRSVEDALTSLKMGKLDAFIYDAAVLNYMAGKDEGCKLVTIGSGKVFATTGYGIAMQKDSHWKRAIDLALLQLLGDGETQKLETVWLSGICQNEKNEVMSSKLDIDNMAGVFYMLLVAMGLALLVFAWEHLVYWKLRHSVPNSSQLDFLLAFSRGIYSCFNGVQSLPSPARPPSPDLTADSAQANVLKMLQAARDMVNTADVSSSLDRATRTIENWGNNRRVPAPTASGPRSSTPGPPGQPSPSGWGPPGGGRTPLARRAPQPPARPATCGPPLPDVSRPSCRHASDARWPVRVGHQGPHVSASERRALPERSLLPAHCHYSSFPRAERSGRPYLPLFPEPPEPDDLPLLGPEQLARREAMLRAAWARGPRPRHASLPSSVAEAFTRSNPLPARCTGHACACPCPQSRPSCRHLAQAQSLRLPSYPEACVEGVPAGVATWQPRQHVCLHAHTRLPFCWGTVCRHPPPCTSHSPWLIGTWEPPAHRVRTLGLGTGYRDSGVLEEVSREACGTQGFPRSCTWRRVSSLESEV
Chain of NR1/NR2C (Rattus norvegicus, UniProt P35439+Q00961) (Q00961 20-1237, other chains not shown): as above

SMILES: CN[C@H](CC(=O)O)C(=O)O [NMDA, N-methyl-D-aspartic acid]
- Ki (native NMDA receptors [10]): 6.2 µM
- EC50 (NR1/NR2A [11]): 75 µM
- pEC50 (mean ± SEM) (NR1/NR2A [11]): 4.13±0.07
- I/Imax (relative maximal response) (NR1/NR2A [11]; relative to glutamate (1.0)): 0.90 ± 0.04
- EC50 (NR1/NR2B [12]): 22 µM
- pEC50 (mean ± SEM) (NR1/NR2B [12]): 4.66±0.03
- I/Imax (relative maximal response) (NR1/NR2B [12]; relative to glutamate (1.0)): 0.77 ± 0.01
- EC50 (NR1/NR2C [13]): 23 µM
- pEC50 (mean ± SEM) (NR1/NR2C [13]): 4.63±0.02
- I/Imax (relative maximal response) (NR1/NR2C [13]; relative to glutamate (1.0)): 0.73 ± 0.02
- EC50 (NR1/NR2D [14]; NR1/NR2D): 8.3 µM
- pEC50 (mean ± SEM) (NR1/NR2D [14]; NR1/NR2D): 5.08±0.04
- I/Imax (relative maximal response) (NR1/NR2D [14]; NR1/NR2D, relative to glutamate (1.0)): 0.80 ± 0.02

SMILES: C[C@H](C[C@H](N)C(=O)O)C(=O)O [SYM2081, (2S,4R)-4-methylglutamate]
- Higher potency at NR1/NR2D over NR1/NR2A (NR1/NR2D [14]; NR1/NR2D vs NR1/NR2A): 46 fold

SMILES: N[C@@H](CCC(=O)O)C(=O)O [glutamate, (S)-glutamate]
- Decrease of potency by mutation Y730 to phenylalanine in NR2A [15]: 45 fold
- Change of potency on NR2D(Y732F) (in words) (NR2D(Y732F)): slightly increased

The next lines start with results.

- [3H]CGP39653 mean pKi ± SEM (native NMDA receptors [1]): 4.74 ± 0.13
- Ki (native NMDA receptors [1]): 21 µM
- EC50 (NR1/NR2A [2]): > 1000 µM
- Agonist activity (in words) (NR1/NR2B [3]): activated
- EC50 (NR1/NR2B [3]): > 3000 µM
- EC50 (NR1/NR2C [4]): 720 µM
- pEC50 (mean ± SEM) (NR1/NR2C [4]): 3.15±0.06
- I/Imax (relative maximal response) (NR1/NR2C [4]): 0.47 ± 0.03
- EC50 (NR1/NR2D [5]): 230 µM
- pEC50 (mean ± SEM) (NR1/NR2D [5]): 3.63±0.01
- I/Imax (relative maximal response) (NR1/NR2D [5]): 0.67 ± 0.01
SMILES: O=C(O)[C@H]1CN[C@H]1C(=O)O [D-cis-ADC, (2R,3S)-Azetidine-2,3-dicarboxylic acid]
- Agonist activity (in words) (NR1/NR2C [4]): activated; also recorded: partial agonist
- Agonist activity (in words) (NR1/NR2D [5]): activated; also recorded: partial agonist

- Affinity for glutamate binding site of native NMDA receptors (in words) (native NMDA receptors [1]): essentially without affinity
- [3H]CGP39653 mean pKi ± SEM (native NMDA receptors [1]): 4.05 ± 0.03
- Ki (native NMDA receptors [1]): 90 µM
- EC50 (NR1/NR2A [2]): > 1000 µM
- EC50 (NR1/NR2B [6]): > 1000 µM
- Agonist activity (in words) (NR1/NR2B [3]): activated
- EC50 (NR1/NR2C [7]): > 1000 µM
- Agonist activity (in words) (NR1/NR2C [4]): activated
- EC50 (NR1/NR2D [8]): 660 µM
- Agonist activity (in words) (NR1/NR2D [5]): activated
- I/Imax (relative maximal response) (NR1/NR2D [5]): 0.69 ± 0.01
SMILES: O=C(O)[C@@H]1CN[C@H]1C(=O)O [D-trans-ADC, (2R,3R)-Azetidine-2,3-dicarboxylic acid]

- Affinity for glutamate binding site of native NMDA receptors (in words) (native NMDA receptors [1]): essentially without affinity
- Ki (native NMDA receptors [1]): > 100 µM
- Agonist activity (in words) (NR1/NR2A [2]): unable to activate
- EC50 (NR1/NR2A [2]): > 1000 µM
- Agonist activity (in words) (NR1/NR2B [3]): unable to activate
- EC50 (NR1/NR2B [3]): > 1000 µM
- EC50 (NR1/NR2C [4]): > 1000 µM
- EC50 (NR1/NR2D [5]): > 1000 µM
SMILES: O=C(O)[C@H]1NC[C@H]1C(=O)O [L-cis-ADC]
- Agonist activity (in words) (NR1/NR2C [4]): only at high concentrations (1000 μM) some activation
- Agonist activity (in words) (NR1/NR2D [5]): only at high concentrations (1000 μM) some activation

- [3H]CGP39653 mean pKi ± SEM (native NMDA receptors [1]): 5.04 ± 0.10
- Ki (native NMDA receptors [1]): 10 µM
- Agonist activity (in words) (NR1/NR2A [2]): able to (partially) activate
- pEC50 (mean ± SEM) (NR1/NR2A [2]): 3.32±0.03
- EC50 (NR1/NR2A [2]): 470 µM
- I/Imax (relative maximal response) (NR1/NR2A [2]; [16]): 0.38 ± 0.02
- pEC50 (mean ± SEM) (NR1/NR2B [3]): 3.76±0.01
- EC50 (NR1/NR2B [3]): 170 µM
- I/Imax (relative maximal response) (NR1/NR2B [3]; [16]): 0.48 ± 0.01
- EC50 (NR1/NR2C [4]): 95 µM
- pEC50 (mean ± SEM) (NR1/NR2C [4]): 4.02±0.02
- I/Imax (relative maximal response) (NR1/NR2C [4]): 0.73 ± 0.03
- EC50 (NR1/NR2D [5]): 50 µM
- pEC50 (mean ± SEM) (NR1/NR2D [5]): 4.30±0.02
- Preference (agonist potency) for NR1/NR2D over NR1/NR2A (NR1/NR2D [5]; NR1/NR2D vs NR1/NR2A): 9.4 fold
- Preference (agonist potency) for NR1/NR2D over NR1/NR2B (NR1/NR2D [5]; NR1/NR2D vs NR1/NR2B): 3.4 fold
- Preference (agonist potency) for NR1/NR2D over NR1/NR2C (NR1/NR2D [5]; NR1/NR2D vs NR1/NR2C): 1.9 fold
- I/Imax (relative maximal response) (NR1/NR2D [5]): 0.80 ± 0.01
SMILES: O=C(O)[C@H]1CN[C@@H]1C(=O)O [L-trans-ADC]
- Affinity at native EAATs (in words) [9]: affinity in the medium micromolar range
